Experimental data taken from publication PMC10401713, “Silver(I)-Catalyzed Synthesis of Cuneanes from Cubanes and their Investigation as Isosteres” (Journal of the American Chemical Society, 2023).
Values after ≈ are worked out from the molar mass of the structure shown. Like-named read-outs stand apart in the source and are kept apart here. One block for each compound: values may come before it.

How the values were obtained:
[1] = pKa in H2O by pH-metric titration (Sirius T3); type: physicochemical; details: water, average of 3 measurements
Protocol: (§1) 6. Physicochemical Measurements
(§2) The logP, pKa in H2O, and aqueous solubility were performed on a Sirius T3 instrument (Pion). The device consists of a pH-meter electrode, a robot that prepares the solutions needed to perform the measurements, and a UV-vis spectrophotometer. Basic titration is performed with a 0.5 M KOH buffer. Acidic titration is performed with a 0.5 M HCl buffer.
(§3) Log P was determined potentiometrically by using the "Shake flask" method, which consists of dissolving part of the solute in question in a volume of n-octanol and water, then performing pH […]
(§4) To obtain the pKa values, a pH-metric titration experiment was carried out. It can measure pKa values between 2 and 12. An acidic or base titrant was added to reach a starting pH at which the sample is ionized. Then, small volumes of 0.5 M HCl or KOH titrant were added and the pH was measured after each addition. Potentiometric measurement of basic compounds were done from pH 2 to pH 12 by adding 0.5 M KOH solution. Potentiometric measurement of acid ic compounds (20, S1, and 14) were done from pH 12 to pH 2 by adding 0.5 M HCl solution. Measurement points were done every 0.2 pH value. After each addition, the sample was stirred for 60 seconds and the pH value was then collected. The titration experiments were done 3 times and the stated values are averages of the 3 […]
(§5) (1 picture or pasted object on this page, not shown here)

[2] = logP measurement (Sirius T3, potentiometric shake-flask method, n-octanol/water); type: physicochemical; details: n-octanol and water
Protocol: as §1, §2, §3, §4, §5

[3] = Aqueous solubility (CheqSol method, Sirius T3); type: physicochemical; details: for solubility: water, aqueous buffer, thermodynamic from solid
Protocol: as §1
as §2, with “HCl buffer. […]” for “HCl buffer.”
as §5
Solubility measurements were performed using the CheqSol method developed by Pion.22 Because in most cases, compounds are more soluble at pH values where they ionized, the analyte was solubilized in acidic water before pH-titration was performed, measuring the UV-vis spectrum after each addition. The precipitation point was detected from the reduction of the light transmission during UV-vis measurement, or manually when not obvious. The pH-titration was repeated several times around the precipitation point to determine the solubility value by averaging. […]
aqueous solubility (mM) –a […]

[4] = Human liver microsome stability; type: in vitro ADME; details: liver microsomes, pH 7.4, 1 µM compound, 0.5 mg/mL protein, NADPH, 37 °C
Protocol: (§6) 7. Microsome Stability Measurements for the Cuneane Analog of Sonidegib Microsome stability measurements were performed by Sygnature Discovery (Nottingham, United […]
(§7) The microsomal stability of a test compound is assessed by spiking compound into tissue microsomes containing NADPH in buffer and sampling for up t o 1 h at 37 °C. Following protein precipitation and centrifugation, the samples are analy zed by UPLC-MS-MS.
(§8) To assess the metabolic stability of a test compound in tissue microsomes.
(§9) • Compound identifier and molecular formula
(§10) • 20 µL of 1 mM test compound in DMSO or 1 mg solid
(§11) Dilutions of a 1 mM test compound DMSO stock solution are prepared in 0.01 M phosphate buffered saline (pH7.4)) so that the final DMSO concentration is 0.1% and the final test compound concentration tested is 1 µM. Following addition of protein (0.5 mg/mL final) and NADPH, the samples are pre-incubated for 10 min prior to the start of the incubation by the addition of […]. The test compound will be incubated (n = 2; 1 µM final concentration) at 37 °C with tissue microsomes. […]
(§12) All the samples will be mixed, centrifuged and the supernatants analysed by UPLC-MS-MS.
(§13) The intrinsic clearance (Clint) and half-life (t1/2) values will be determined from the slope of the parent depletion curve. […]

[5] = Mouse liver microsome stability; type: in vitro ADME; details: CD1, mouse, liver microsomes, pH 7.4, 1 µM compound, 0.5 mg/mL protein, NADPH, 37 °C
Protocol: as §6, §7, §8, §9, §10, §11, §12, §13

[6] = parameters: method as in PMID 36763965; details: literature value; ref [8b]; cited from earlier work
[7] = parameters: method as in PMID 36763965; details: literature value; ref [8b]; cited from earlier work; remark: listed apart in the source
[8] = parameters: method as in doi:10.1021/ja983441f; details: literature value; ref ([32]); cited from earlier work
[9] = parameters: method as in PMID 36763965; details: literature value; ref [8b]; cited from earlier work; remark: listed apart in the source

pKa [1]: 3.99 ± 0.02
logP [2]: 0.72 ± 0.01
solubility [3]: 210 mM (≈ 43.3 mg/mL)
Compound: COC(=O)C12C3C4C5C1C2C3C45C(=O)O (stereo not drawn) [compound 14]

microsomal CLint at 1 µM [4]: 76 µL/min/mg
half-life at 1 µM ([4]; read-out: human liver microsome stability t1/2): 19 min
logP [2]: 4.74 ± 0.23
microsomal CLint at 1 µM [5]: 61 µL/min/mg
half-life at 1 µM ([5]; read-out: mouse liver microsome stability t1/2): 23 min
aqueous solubility [3]: too low to be measured
Compound: C[C@@H]1CN(c2ccc(NC(=O)C34C5C6C3C3C4C3(c3ccc(OC(F)(F)F)cc3)C65)cn2)C[C@H](C)O1 (stereo partly drawn) [compound 19]

pKa [1]: 3.84 ± 0.01
logP [2]: 2.02 ± 0.02
solubility [3]: 1.38 mM (≈ 0.249 mg/mL)
Compound: COC(=O)c1ccc(C(=O)O)cc1 [compound 20, 4-(methoxycarbonyl)benzoic acid]

The next lines start with the compound.

Compound: COC(=O)C12C3C4C1C1C2C3C41C(=O)O (stereo not drawn) [S1]
pKa [1]: 3.96 ± 0.01
logP [2]: 0.02 ± 0.01
solubility [3]: 149 mM (≈ 30.7 mg/mL)

Compound: Cc1c(C(=O)Nc2ccc(N3C[C@@H](C)O[C@@H](C)C3)nc2)cccc1-c1ccc(OC(F)(F)F)cc1 [sonidegib]
human liver microsome stability Clint [6]: 20 µL/min/mg
human liver microsome stability t1/2 [6]: 70 min
aqueous solubility [7]: <1.6 × 10^–3 (ref [8b]) mM
logP [8]: 4.26 (ref ([32]))
mouse liver microsome stability Clint [9]: 26 µL/min/mg
mouse liver microsome stability t1/2 [9]: 53 min
